Numbered stars: 1 amine (or outer) side, 2 acyl side, 3 side chain; on linkers, the order of the positions; unused ones are H or OH. Bridge positions count the residues as written; N and C are the ends. Square brackets hold non-standard residues; d marks the D form. Peptide text beside a SMILES is read from it. I, II: the chains in the order shown. 2Nal = N[C@@H](Cc1ccc2ccccc2c1)C(=O)O; Diglycolyl = O=C(COCC(=O)[*:2])[*:1]; NMeR = CN[C@@H](CCCNC(=N)N)C(=O)O; Tic = O=C(O)[C@@H]1Cc2ccccc2CN1; β3hE = N[C@@H](CCC(=O)O)CC(=O)O; Pen = CC(C)(S)[C@H](N)C(=O)O
Columns and labels:
[1] = molecular target: T1, α4β7 (Mus musculus, UniProt P26011+Q00651); test: α4β7 Cell Adhesion Assay (Mouse), TK1 cells; format: cell-based; settings: Table 3-B, Potency (α4β7); range classes; read-out: α4β7 cell(MU) IC50
T1 construct: host or cells: TK1 mouse T cells
T1 sequence (Q00651 34-1039 limits assumed): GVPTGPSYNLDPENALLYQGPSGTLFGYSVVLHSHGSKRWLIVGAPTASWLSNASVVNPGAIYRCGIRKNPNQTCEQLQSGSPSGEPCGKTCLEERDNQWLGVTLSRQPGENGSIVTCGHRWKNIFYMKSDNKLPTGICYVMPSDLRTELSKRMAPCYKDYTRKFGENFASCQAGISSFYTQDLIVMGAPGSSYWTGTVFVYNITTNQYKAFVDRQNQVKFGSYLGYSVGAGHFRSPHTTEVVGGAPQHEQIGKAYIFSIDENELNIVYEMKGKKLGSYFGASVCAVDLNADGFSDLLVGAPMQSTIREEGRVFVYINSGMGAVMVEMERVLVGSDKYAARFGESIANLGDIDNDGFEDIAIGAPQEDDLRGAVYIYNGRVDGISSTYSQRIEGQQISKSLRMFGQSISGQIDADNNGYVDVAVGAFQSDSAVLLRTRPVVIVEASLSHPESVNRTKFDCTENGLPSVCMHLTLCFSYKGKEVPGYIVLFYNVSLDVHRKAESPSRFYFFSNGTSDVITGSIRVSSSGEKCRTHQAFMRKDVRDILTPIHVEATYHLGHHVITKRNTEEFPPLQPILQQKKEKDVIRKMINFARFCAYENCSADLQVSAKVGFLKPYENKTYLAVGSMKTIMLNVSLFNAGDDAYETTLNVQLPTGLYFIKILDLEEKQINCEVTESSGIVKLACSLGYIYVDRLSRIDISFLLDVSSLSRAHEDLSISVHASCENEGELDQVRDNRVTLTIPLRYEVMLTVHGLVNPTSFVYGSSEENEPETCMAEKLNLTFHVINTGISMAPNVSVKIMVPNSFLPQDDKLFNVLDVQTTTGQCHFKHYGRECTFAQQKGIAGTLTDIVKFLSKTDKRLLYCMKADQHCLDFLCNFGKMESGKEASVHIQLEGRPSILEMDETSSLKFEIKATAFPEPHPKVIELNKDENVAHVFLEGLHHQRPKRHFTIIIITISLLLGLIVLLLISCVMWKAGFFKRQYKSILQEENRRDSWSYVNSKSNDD
T1 sequence (P26011 20-806): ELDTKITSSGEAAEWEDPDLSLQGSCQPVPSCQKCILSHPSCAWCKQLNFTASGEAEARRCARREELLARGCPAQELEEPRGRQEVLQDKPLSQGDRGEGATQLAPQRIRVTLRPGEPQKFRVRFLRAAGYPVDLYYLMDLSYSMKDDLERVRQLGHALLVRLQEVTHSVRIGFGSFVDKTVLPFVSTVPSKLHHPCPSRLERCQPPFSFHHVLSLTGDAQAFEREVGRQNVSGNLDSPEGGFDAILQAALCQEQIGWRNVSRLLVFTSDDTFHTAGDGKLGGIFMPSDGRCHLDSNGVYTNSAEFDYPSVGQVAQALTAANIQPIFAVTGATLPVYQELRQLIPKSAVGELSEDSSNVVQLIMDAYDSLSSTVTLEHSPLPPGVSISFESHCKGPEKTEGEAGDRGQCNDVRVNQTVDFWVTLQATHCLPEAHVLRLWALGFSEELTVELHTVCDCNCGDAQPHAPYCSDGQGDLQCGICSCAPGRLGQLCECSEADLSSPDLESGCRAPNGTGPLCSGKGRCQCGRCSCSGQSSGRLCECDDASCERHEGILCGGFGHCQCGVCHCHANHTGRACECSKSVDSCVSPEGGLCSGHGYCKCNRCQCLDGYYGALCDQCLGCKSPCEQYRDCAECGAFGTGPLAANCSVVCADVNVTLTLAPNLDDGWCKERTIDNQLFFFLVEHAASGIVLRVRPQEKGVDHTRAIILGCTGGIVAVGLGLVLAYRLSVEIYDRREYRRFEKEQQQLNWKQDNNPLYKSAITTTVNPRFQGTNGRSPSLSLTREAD
Protocol: TK1 cells (ATCC # ATCC-CRL-2396) were cultured in RPMI 1640 with 2 mM L-glutamine adjusted to contain 1.5 g/L sodium bicarbonate, 4.5 g/L glucose, 10 mM HEPES, and 1.0 mM sodium pyruvate (ATCC#30-2001) and supplemented with 0.1 mM non-essential amino acids, (ATCC #30-2116) 0.05 mM 2-mercaptoethanol (Invitrogen #21985) and 10% serum (Fetal Bovine Serum, Invitrogen #16140-071), and Penicillin-Streptomycin (Invitrogen #15140-122) at 100 units of penicillin and 100 μg of streptomycin per ml. The cells were washed two times in DMEM medium (ATCC #30-2002) supplemented with 0.1% BSA, 10 mM HEPES pH 7 and 1 mM MnCl2. The cells were re-suspended in supplemented DMEM medium at a density of 4×10^6 cells/ml.
A Nunc MaxiSorp plate was coated with Recombinant human MAdCAM-1 Fc Chimera (R&D #6065-MC) at 200 ng per well in 100 μl per well in 1×PBS and incubated at 4° C. overnight. The solution was then removed by shaking, blocked with 250 ul per well PBS containing 1% BSA, and incubated at 37° C. for 1 hr. The solution was removed by shaking. DATK 32 (anti-mouse α4β7) and peptides were diluted by serial dilution in a final volume of 50 ul per well (2× concentration). To each well, 50 ul of cells (200,000 cells) are added and the plate is incubated at 37° C., 5% CO2 for 30-45 min to allow cell adhesion. The plate was manually washed three times with supplemented DMEM, 100 ul per wash. After the final wash, 100 ul/well of supplemented DMEM and […] of MTT reagent (ATTC cat#30-1010K) was added to each well. Wells were incubated at 37° C. with 5% CO2 for 2-3 hrs until purple precipitate was visible. 100 μl of Detergent Reagent (ATTC cat#30-1010K) was added to each well. The plate was then wrapped with Para film to prevent evaporation, and left overnight at room temperature in the dark. The plate was shaken for 5 min and the absorbance at 570 nm was measured. To calculate the dose response, the absorbance value of control wells not containing cells was subtracted from each test well.

[2] = molecular target: T2, α4β7 (Homo sapiens, UniProt P13612+P26010); test: α4β7-MAdCAM Cell Adhesion Assay (RPMI 8866 human cells); format: cell-based; set-up: host or cells: RPMI 8866 human B lymphoblastoid cells; settings: Table 3-B, Potency (α4β7); range classes; read-out: α4β7 cell (Hu) IC50
In short: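 Washed RPMI 8866 cells (200,000/well) in DMEM with 0.1% BSA, 10 mM HEPES pH 7, 1 mM MnCl2 adhered to rh MAdCAM-1/Fc-coated wells with serially diluted peptides, 30-45 min at 37 °C. After three washes, bound cells quantified by MTT, A570, cell-free background subtracted for dose response.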

[3] = molecular target: T2, α4β7; test: PBMC Memory T Cell Adhesion Assay, adhesion to MAdCAM-1; format: cell-based; settings: Table 3-B; range classes; read-out: PBMC IC50
Protocol: Fresh CD4+/CD45RO+ memory T cells were isolated from human peripheral blood mononuclear cell (PBMC) donors by Aragen Bioscience Inc. (Morgan Hill, Calif.). The assay plate was prepared using IgG Fc capture antibody (donkey anti human) immobilized at 500 ng/well in 50 mM sodium bicarbonate buffer, pH 9.5, ON, 4C onto a Greiner Fluotrac plate (100 ul per well). The plate was rinsed two time with Blocking Buffer (25 mM Tris HCl, pH7.5, 150 mM NaCl, 1.5% BSA, 0.05% Tween), and blocked with Blocking Buffer for 2 hours at 37 C or 5 hours at RT using 200 ul per well. The Blocking Buffer was removed and either MAdCAM-1 or VCAM-1 at 400 ng/well in Blocking Buffer was added and the plate incubated overnight at 4C (100 ul per well). The plate was washed two times with Blocking Buffer, and rinsed once with 200 ul Binding Media (DMEM phenol red free, 10 mM HEPES, 1×Na pyruvate, 1× Glutamine, and supplemented with 1 mM MnCl2 prior to use). To prepare cells, approximately 25 million CD4+/CD45RO+ memory T cells were counted by trypan blue exclusion using a haemocytometer to determine viability and cell count. The cells were transferred to a 50 ml conical tube, and centrifuged at 1200 rpm for 10 minute. The media was aspirated and the cell pellet resuspended in 15 ml Binding Media. The cells were centrifuged again and resuspended in the appropriate amount of Binding Media to be used for assays (50 ul of cells per well at 2× the final density). To each well, and equal volume (50 ul) of test compound was added and the plate was incubated for 1.5 hours at 37 C, 5% CO2. Each well was rinsed 3× with 150 ul per well of Binding Media. […] The plate was incubated at 37 C, 5% CO2, for 45 minutes. The plate was protected from light by using black adhesive seals. Fluorescence intensity was measured using a Molecular Devices Gemini EM Fluorescent Plate Reader (Ex 485/Em530, Bottom Read, Reading Sensitivity=20). IC50 curves are generated using Graph Pad Prism and the curves analyzed using analyzed using a non-linear regression (four parameters) algorithm. The log (concentration) versus RFU (Ex485/Em530) was plotted to determine IC50 values.

[4] = tested on: cell types in human whole blood; test: FACS binding specificity in human whole blood; format: cell-based; settings: 1 nM, 1 mM MnCl2
Protocol: To further evaluate the selectivity of Peptide X in human blood, the fluorescent dye Alexa 647 was conjugated to Peptide X at the same position used for attaching biotin. […] Heparinized human whole blood was supplemented with 1 mM MnCl2, and stained with the Peptide X-Alexa 647 conjugate or biotinylated vedolizumab for 1 hour at room temperature. The samples were fixed (red blood cells lysed) and washed. The vedolizumab samples were stained separately with streptavidin Alexa 647 for stain for 30 minutes at room temperature. FACS analysis was used to assess binding of the peptide or vedolizumab to a broad panel of cell types including NK cells, basophils, monocytes, eosinophils, neutrophils, CD4 naïve T cells, CD4 memory T cells, CD8 naïve T cells, CD8 memory T cells, and B cells. […] The binding specificity for vedolizmab shown in Table 7 is also very similar to that reported in the literature (Soler et al, JPET 330:864-875, 2009).

[5] = molecular target: T3, α4β1 (Homo sapiens, UniProt P05556+P13612, DEL729-798); test: α4β1-VCAM Competition ELISA; format: binding; settings: Table 3-B, Selectivity (α4β1); range classes; read-out: α4β1 ELISA IC50
T3 construct: purchased R&D Systems 5668-A4
T3 sequence (P13612 34-977 limits assumed, stated change not applied): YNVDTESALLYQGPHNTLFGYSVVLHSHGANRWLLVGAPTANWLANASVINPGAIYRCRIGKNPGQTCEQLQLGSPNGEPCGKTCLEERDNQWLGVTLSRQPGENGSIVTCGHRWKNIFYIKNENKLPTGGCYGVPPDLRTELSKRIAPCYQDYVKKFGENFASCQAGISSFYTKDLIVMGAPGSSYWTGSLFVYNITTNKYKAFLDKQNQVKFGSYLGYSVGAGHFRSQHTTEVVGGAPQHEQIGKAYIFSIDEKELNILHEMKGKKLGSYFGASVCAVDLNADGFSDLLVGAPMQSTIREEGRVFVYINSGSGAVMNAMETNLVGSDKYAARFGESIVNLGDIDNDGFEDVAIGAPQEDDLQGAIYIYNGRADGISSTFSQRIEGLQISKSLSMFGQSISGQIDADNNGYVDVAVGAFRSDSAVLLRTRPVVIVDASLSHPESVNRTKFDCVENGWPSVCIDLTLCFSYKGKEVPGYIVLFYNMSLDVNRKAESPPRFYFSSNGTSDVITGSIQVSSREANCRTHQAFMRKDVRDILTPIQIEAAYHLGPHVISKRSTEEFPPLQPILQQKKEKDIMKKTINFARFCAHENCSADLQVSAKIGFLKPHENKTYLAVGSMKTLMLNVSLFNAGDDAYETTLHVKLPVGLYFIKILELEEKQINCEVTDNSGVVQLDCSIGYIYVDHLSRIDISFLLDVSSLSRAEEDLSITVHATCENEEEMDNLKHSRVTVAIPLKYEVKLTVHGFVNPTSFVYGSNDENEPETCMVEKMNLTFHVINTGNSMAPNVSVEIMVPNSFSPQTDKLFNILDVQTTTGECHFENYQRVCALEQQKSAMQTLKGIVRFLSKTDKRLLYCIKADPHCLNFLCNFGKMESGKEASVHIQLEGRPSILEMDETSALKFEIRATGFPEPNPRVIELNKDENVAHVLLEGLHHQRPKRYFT
T3 sequence (P05556 21-728 limits assumed, stated change not applied): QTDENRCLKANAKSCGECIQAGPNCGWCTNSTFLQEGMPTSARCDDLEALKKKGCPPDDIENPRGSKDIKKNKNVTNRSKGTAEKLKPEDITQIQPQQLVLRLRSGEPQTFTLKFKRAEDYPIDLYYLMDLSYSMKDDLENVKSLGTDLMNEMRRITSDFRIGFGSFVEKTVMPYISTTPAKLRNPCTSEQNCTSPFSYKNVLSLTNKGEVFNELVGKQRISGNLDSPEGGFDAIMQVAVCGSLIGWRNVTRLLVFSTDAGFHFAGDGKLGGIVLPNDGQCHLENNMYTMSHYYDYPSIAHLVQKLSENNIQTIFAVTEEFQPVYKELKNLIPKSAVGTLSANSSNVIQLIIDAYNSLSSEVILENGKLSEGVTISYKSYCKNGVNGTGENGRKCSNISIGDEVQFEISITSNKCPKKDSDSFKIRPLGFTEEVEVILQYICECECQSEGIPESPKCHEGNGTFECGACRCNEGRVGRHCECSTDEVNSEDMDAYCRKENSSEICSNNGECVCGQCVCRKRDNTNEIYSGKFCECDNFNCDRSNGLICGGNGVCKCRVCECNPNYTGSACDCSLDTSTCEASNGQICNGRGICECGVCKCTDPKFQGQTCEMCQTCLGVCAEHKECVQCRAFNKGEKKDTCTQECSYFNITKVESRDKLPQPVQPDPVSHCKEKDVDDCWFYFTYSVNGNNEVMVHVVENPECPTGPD
Protocol: A Nunc MaxiSorp plate was coated with rh VCAM-1/CD106 Fc chimera (R&D #862-VC) at 400 ng/well in 50 ul per well in 1×PBS and incubated overnight at 4° C. The solution was removed by shaking and then blocked with 250 ul of 1% BSA in 1×PBS per well. The wells were then incubated at room temperature for 1 hr with shaking. Each well was then washed once with wash buffer (50 mM Tris-HCl pH7.6, 100 mM NaCL, 1 mM MnCl2 or MgCl2, 0.05% Tween-20). 25 ul of serial dilutions of peptides starting at 200 μM in assay buffer (Assay buffer: 50 mM Tris-HCl pH7.6, 100 mM NaCl, 1 mM MnCl2 or MgCl2, 0.05% Tween-20) was added to each well. Additionally, 25 ul of α4β1 (R&D Systems #5668-A4) was added to each well at a fixed concentration of 120 nM. The final peptide and α4β1 concentrations were 100 μM and 60 nM, respectively. The plates were then incubated at 37° C. for 2 hr. The solution was then removed by shaking, and each well was washed three times with wash buffer. 50 ul of 9F10 antibody at 4 ug/ml (purified mouse anti-human CD49d, BD Bioscience Cat#555502) was then added to each well, and the plate was incubated at room temperature for 1 hr with shaking. The solution was again removed by shaking, and each well was washed three times with wash buffer. 50 ul of peroxidase-conjugated AffiniPure Goat anti-mouse IgG (Jackson immune research cat #115-035-003) diluted in 1:5000 in assay buffer was added to each well. The plate was incubated at room temperature for 30 min with shaking. Each well was then washed 3 times with wash buffer. 100 ul of TMB was then added to each well and closely observe during developing time. The reaction was stepped with 2N H2SO4 and absorbance was read at 450 nm.

Compound	IC50 [1] [nM]	IC50 [2] [nM]	IC50 [5] [nM]	also measured
COC(=O)CC[C@H](NC(=O)[C@H](Cc1c[nH]c2ccccc12)NC(=O)[C@H]1NC(=O)[C@H](CC(C)C)NC(=O)[C@H]([C@@H](C)O)NC(=O)[C@H](CC(=O)O)NC(=O)[C@H](CO)NC(=O)[C@H](CCCNC(=N)N)N(C)C(=O)[C@@H](NC(C)=O)C(C)(C)SSC1(C)C)C(=O)N[C@H](CCCCNC(=O)COCC(=O)NCCCC[C@@H](NC(=O)[C@H](CCC(=O)OC)NC(=O)[C@H](Cc1c[nH]c2ccccc12)NC(=O)[C@H]1NC(=O)[C@H](CC(C)C)NC(=O)[C@H]([C@@H](C)O)NC(=O)[C@H](CC(=O)O)NC(=O)[C@H](CO)NC(=O)[C@H](CCCNC(=N)N)N(C)C(=O)[C@@H](NC(C)=O)C(C)(C)SSC1(C)C)C(N)=O)C(N)=O [compound 86] (I: Ac-[Pen][NMeR]SDTL[Pen]WE(OMe)[dK]-NH2 / II: Ac-[Pen][NMeR]SDTL[Pen]WE(OMe)[dK]-NH2; disulfide I:1-I:7, II:1-II:7; linker I:10-II:10 via Diglycolyl)	< 10	< 10		
CC(=O)N[C@@H]1C(=O)N(C)[C@@H](CCCNC(=N)N)C(=O)N[C@@H](CO)C(=O)N[C@@H](CC(=O)O)C(=O)N[C@@H]([C@@H](C)O)C(=O)N[C@@H](CC(C)C)C(=O)N[C@H](C(=O)N[C@@H](Cc2ccc(C(C)(C)C)cc2)C(=O)N[C@@H](CCC(=O)O)CC(=O)N[C@H](CCCCNC(=O)CN(CC(=O)NCCCC[C@@H](NC(=O)C[C@H](CCC(=O)O)NC(=O)[C@H](Cc2ccc(C(C)(C)C)cc2)NC(=O)[C@H]2NC(=O)[C@H](CC(C)C)NC(=O)[C@H]([C@@H](C)O)NC(=O)[C@H](CC(=O)O)NC(=O)[C@H](CO)NC(=O)[C@H](CCCNC(=N)N)N(C)C(=O)[C@@H](NC(C)=O)C(C)(C)SSC2(C)C)C(N)=O)C(=O)CCN)C(N)=O)C(C)(C)SSC1(C)C [compound 166]		< 10		IC50 [3]: < 10 nM
vedolizumab [reference compound]				Percent positive staining, Basophils [4]: 86%; Percent positive staining, CD4 memory T cells [4]: 22%; Percent positive staining, CD4 naïve T cells [4]: 55%; Percent positive staining, CD8 memory T cells [4]: 36%; Percent positive staining, CD8 naïve T cells [4]: 53%; Percent positive staining, CD19+ B cells [4]: 85%; Percent positive staining, Eosinophils [4]: 91%; Percent positive staining, Monocytes [4]: 7%; Percent positive staining, NK cells CD16+ 56+ [4]: 42%; Percent positive staining, Neutrophils [4]: 0.45%
CC(=O)N[C@@H]1C(=O)N(C)[C@@H](CCCNC(=N)N)C(=O)N[C@@H](CO)C(=O)N[C@@H](CC(=O)O)C(=O)N[C@@H]([C@@H](C)O)C(=O)N[C@@H](CC(C)C)C(=O)N[C@H](C(=O)N[C@@H](Cc2ccc3ccccc3c2)C(=O)N[C@@H](CCC(=O)O)CC(N)=O)C(C)(C)SSC1(C)C [compound 155] (Ac-[Pen][NMeR]SDTL[Pen][2Nal][β3hE]-NH2; disulfide 1-7)	25 to 50	25 to 50	1000 to 10000	
CC(=O)N[C@@H]1C(=O)N(C)[C@@H](CCCNC(=N)N)C(=O)N[C@@H](CO)C(=O)N[C@@H](CC(=O)O)C(=O)N[C@@H]([C@@H](C)O)C(=O)N[C@@H](CC(C)C)C(=O)N[C@H](C(=O)N[C@@H](Cc2c[nH]c3ccccc23)C(=O)N[C@@H](CCC(=O)O)CC(=O)O)C(C)(C)SSC1(C)C [compound 146] (Ac-[Pen][NMeR]SDTL[Pen]W[β3hE]-OH; disulfide 1-7)	50 to 100	50 to 100	1000 to 10000	
CC(=O)N[C@@H]1C(=O)N(C)[C@@H](CCCNC(=N)N)C(=O)N[C@@H](CO)C(=O)N[C@@H](CC(=O)O)C(=O)N[C@@H]([C@@H](C)O)C(=O)N[C@@H](CC(C)C)C(=O)N[C@H](C(=O)N2Cc3ccccc3C[C@H]2C(=O)N[C@@H](CCC(=O)O)CC(N)=O)C(C)(C)SSC1(C)C [compound 154] (Ac-[Pen][NMeR]SDTL[Pen][Tic][β3hE]-NH2; disulfide 1-7)	1000 to 10000	100 to 500	1000 to 10000	

From patent US9809623B2, “α4β7 peptide monomer and dimer antagonists” (Protagonist Therapeutics, Inc., priority 2014, dated 2017)
